Measurements reported in ChEMBL document CHEMBL5050861 (2021).
≈ marks a conversion by molar mass, not a printed value.

What was measured:
[1] = Stability of compound in rat microsomes assessed as half-life; type: ADME, Microsome
[2] = Inhibition of recombinant mouse GALK1 using ATP as substrate incubated for 1 hr and measured by Kinase-Glo assay; details: read-out: IC50
[3] = Kinetic aqueous solubility of the compound; type: physicochemical; details: buffer; read-out: Kinetic_solubility
[4] = Permeability of compound by PAMPA assay; type: ADME; details: for Papp: read-out: permeability

half-life [1]	IC50 [2]	solubility kinetic [3]	Papp [4]	permeability [4]	Structure (SMILES)
> 30 min	15.3 µM	> 67 µg/mL	> 1230 ×10⁻⁶ cm/s	–	CC1=C(C(=O)NCCN(C)C)C(c2ccccc2Cl)N=C(Nc2nc3ccccc3o2)N1 (stereo not drawn)
> 30 min	2.43 µM	> 81 µg/mL	< 1 ×10⁻⁶ cm/s	–	COc1ccc([C@@H]2N=C(Nc3nc4cccc(N)c4o3)NC(C)=C2C(=O)Nc2cc(C(=O)O)ccn2)c(Cl)c1
> 30 min	21.7 µM	> 78 µg/mL	< 1 ×10⁻⁶ cm/s	–	CC1=C(C(=O)Nc2cc(C(=O)O)ccn2)[C@@H](c2ccc(C)cc2Cl)N=C(Nc2nc3cccc(N)c3o2)N1
> 30 min	3.43 µM	> 74 µg/mL	< 1 ×10⁻⁶ cm/s	–	CC1=C(C(=O)Nc2cc(C(=O)O)ccn2)[C@H](c2ccccc2Cl)N=C(Nc2nc3ccccc3o2)N1
> 30 min	34.4 µM	> 84 µg/mL	< 1 ×10⁻⁶ cm/s	–	CC1=C(C(=O)Nc2cc(C(=O)O)ccn2)C(c2cccc([N+](=O)[O-])c2Cl)N=C(Nc2nc3ccc(F)cc3o2)N1 (stereo not drawn)
> 30 min	38.5 µM	< 1 µg/mL	< 25.4 ×10⁻⁶ cm/s	–	CC1=C(C(=O)Nc2cccc(-c3cn[nH]c3)c2)C(c2ccccc2Cl)N=C(Nc2nc3ccccc3o2)N1 (stereo not drawn)
> 30 min	12.2 µM	61.8 µg/mL (≈ 122 µM)	< 9.8 ×10⁻⁶ cm/s	–	CN(C)CCNC(=O)C1CC(=O)C2=C(C1)NC(Nc1nc3ccccc3o1)=NC2c1ccccc1Cl (stereo not drawn)
> 30 min	6.85 µM	53.8 µg/mL (≈ 101 µM)	< 1 ×10⁻⁶ cm/s	–	CC1=C(C(=O)Nc2cc(C(=O)O)ccn2)[C@@H](c2ccc(C)cc2Cl)N=C(Nc2nc3ccc(F)cc3o2)N1
> 30 min	19.3 µM	< 1 µg/mL	< 1.5 ×10⁻⁶ cm/s	–	CC1=C(C(=O)Nc2nnc(-c3cccnc3)s2)C(c2ccccc2Cl)N=C(Nc2nc3cc(F)ccc3o2)N1 (stereo not drawn)
8.63 min	48.5 µM	2.42 µg/mL (≈ 4.46 µM)	894 ×10⁻⁶ cm/s	–	CC1=C(C(=O)Nc2ccc(N3CCNCC3)cc2)C(c2ccccc2Cl)N=C(Nc2nc3ccccc3o2)N1 (stereo not drawn)
> 30 min	9.68 µM	24.6 µg/mL (≈ 48.9 µM)	< 1 ×10⁻⁶ cm/s	–	CC1=C(C(=O)Nc2ccc(C(=O)O)nc2)C(c2ccccc2Cl)N=C(Nc2nc3ccccc3o2)N1 (stereo not drawn)
> 30 min	9.68 µM	< 1 µg/mL	< 3.7 ×10⁻⁶ cm/s	–	CC1=C(C(=O)Nc2nnc(-c3cccnc3)s2)C(c2ccccc2Cl)N=C(Nc2nc3ccccc3o2)N1 (stereo not drawn)
> 30 min	6.85 µM	52.6 µg/mL (≈ 120 µM)	< 1 ×10⁻⁶ cm/s	–	O=C1CC(C(=O)O)CC2=C1C(c1ccccc1Cl)N=C(Nc1nc3ccccc3o1)N2 (stereo not drawn)
–	6.11 µM	> 67 µg/mL	> 30 ×10⁻⁶ cm/s	–	CNCCNC(=O)C1=C(C)NC(Nc2nc3ccc(F)cc3o2)=NC1c1ccccc1Cl (stereo not drawn)
> 30 min	10.9 µM	47 µg/mL (≈ 91.1 µM)	< 1 ×10⁻⁶ cm/s	–	CC1=C(C(=O)NCc2ccc(C(=O)O)cc2)C(c2ccccc2Cl)N=C(Nc2nc3ccccc3o2)N1 (stereo not drawn)
25.3 min	13.7 µM	< 1 µg/mL	< 18.7 ×10⁻⁶ cm/s	–	CC1=C(C(=O)Nc2ccc(C#N)cc2)C(c2ccccc2Cl)N=C(Nc2nc3ccccc3o2)N1 (stereo not drawn)
> 30 min	1.37 µM	> 79 µg/mL	< 1 ×10⁻⁶ cm/s	–	CC1=C(C(=O)Nc2cc(C(=O)O)ccn2)[C@H](c2ccc(C)cc2Cl)N=C(Nc2nc3ccc(F)cc3o2)N1
> 30 min	30.6 µM	> 76 µg/mL	< 1 ×10⁻⁶ cm/s	–	CC1=C(C(=O)Nc2cc(C(=O)O)ccn2)C(c2ccccc2Cl)N=C(Nc2nc3c(N)cccc3o2)N1 (stereo not drawn)
9.22 min	6.85 µM	< 1 µg/mL	< 21.9 ×10⁻⁶ cm/s	–	CCn1cc(CNC(=O)C2=C(C)NC(Nc3nc4ccc(F)cc4o3)=NC2c2ccc(C)cc2Cl)cn1 (stereo not drawn)
> 30 min	9.68 µM	–	< 14.5 ×10⁻⁶ cm/s	–	CC1=C(C(=O)Nc2ccc(O)cc2)C(c2ccccc2Cl)N=C(Nc2nc3ccccc3o2)N1 (stereo not drawn)
> 30 min	19.3 µM	> 74 µg/mL	< 1 ×10⁻⁶ cm/s	–	CC1=C(C(=O)Nc2cc(C(=O)O)ccn2)[C@@H](c2ccccc2Cl)N=C(Nc2nc3ccccc3o2)N1
> 30 min	6.11 µM	< 1 µg/mL	< 4.9 ×10⁻⁶ cm/s	–	CC1=C(C(=O)Nc2nncs2)C(c2ccc(Cl)cc2Cl)N=C(Nc2nc3ccccc3o2)N1 (stereo not drawn)
> 30 min	21.7 µM	> 79 µg/mL	< 1 ×10⁻⁶ cm/s	–	COc1ccc2nc(NC3=NC(c4ccccc4Cl)C(C(=O)Nc4cc(C(=O)O)ccn4)=C(C)N3)oc2c1 (stereo not drawn)
> 30 min	4.85 µM	< 1 µg/mL	< 6.8 ×10⁻⁶ cm/s	–	CC1=C(C(=O)Nc2cc(C#N)ccn2)C(c2ccccc2Cl)N=C(Nc2nc3ccc(F)cc3o2)N1 (stereo not drawn)

half-life [1]	IC50 [2]	solubility kinetic [3]	Papp [4]	permeability [4]	Structure (SMILES)
> 30 min	10.9 µM	> 87 µg/mL	< 1 ×10⁻⁶ cm/s	–	CC1=C(C(=O)Nc2cc(C(=O)O)ccn2)C(c2ccc(N3CCCC3)cc2Cl)N=C(Nc2nc3ccc(F)cc3o2)N1 (stereo not drawn)
> 30 min	5.44 µM	29 µg/mL (≈ 60.4 µM)	< 2 ×10⁻⁶ cm/s	–	O=C1CC(C(=O)NCCO)CC2=C1C(c1ccccc1Cl)N=C(Nc1nc3ccccc3o1)N2 (stereo not drawn)
> 30 min	19.3 µM	60.6 µg/mL (≈ 117 µM)	< 1.3 ×10⁻⁶ cm/s	–	CC1=C(C(=O)NCc2cccc(C(=O)O)c2)C(c2ccccc2Cl)N=C(Nc2nc3ccccc3o2)N1 (stereo not drawn)
> 30 min	9.68 µM	< 1 µg/mL	< 1 ×10⁻⁶ cm/s	–	CC1=C(C(=O)Nc2cc(-c3nn[nH]n3)ccn2)C(c2ccc(C)cc2Cl)N=C(Nc2nc3ccc(F)cc3o2)N1 (stereo not drawn)
5.19 min	10.9 µM	–	< 19.3 ×10⁻⁶ cm/s	–	CC1=C(C(=O)NCc2ccccc2O)C(c2ccccc2Cl)N=C(Nc2nc3ccccc3o2)N1 (stereo not drawn)
> 30 min	9.68 µM	< 1 µg/mL	–	1124.1 10^-6 cm/s	CC1=C(C(=O)Nc2cccc(CO)c2)C(c2ccccc2Cl)N=C(Nc2nc3ccccc3o2)N1 (stereo not drawn)
> 30 min	3.43 µM	> 87 µg/mL	< 1 ×10⁻⁶ cm/s	–	CC1=C(C(=O)Nc2cc(C(=O)O)ccn2)C(c2ccc(-n3cccn3)cc2Cl)N=C(Nc2nc3ccc(F)cc3o2)N1 (stereo not drawn)
> 30 min	17.2 µM	> 79 µg/mL	< 1 ×10⁻⁶ cm/s	–	CC1=C(C(=O)Nc2cc(C(=O)O)ccn2)C(c2cccc(N)c2Cl)N=C(Nc2nc3ccc(F)cc3o2)N1 (stereo not drawn)
> 30 min	4.85 µM	58.2 µg/mL (≈ 118 µM)	< 1 ×10⁻⁶ cm/s	–	O=C(O)CNC(=O)C1CC(=O)C2=C(C1)NC(Nc1nc3ccccc3o1)=NC2c1ccccc1Cl (stereo not drawn)
> 30 min	3.85 µM	> 81 µg/mL	< 1 ×10⁻⁶ cm/s	–	CC1=C(C(=O)Nc2cc(C(=O)O)ccn2)C(c2ccc(C#N)cc2Cl)N=C(Nc2nc3ccc(F)cc3o2)N1 (stereo not drawn)
14.1 min	10.9 µM	< 1 µg/mL	< 3.2 ×10⁻⁶ cm/s	–	CC1=C(C(=O)Nc2cc(B(O)O)ccn2)C(c2ccc(C)cc2Cl)N=C(Nc2nc3ccc(F)cc3o2)N1 (stereo not drawn)
> 30 min	0.69 µM	> 90 µg/mL	< 1 ×10⁻⁶ cm/s	–	CC1=C(C(=O)Nc2cc(C(=O)O)ccn2)C(c2ccc(-c3cnc(C)nc3)cc2Cl)N=C(Nc2nc3ccc(F)cc3o2)N1 (stereo not drawn)
> 30 min	3.43 µM	> 77 µg/mL	< 1 ×10⁻⁶ cm/s	–	CC1=C(C(=O)Nc2ccc(C(=O)O)cn2)C(c2ccccc2Cl)N=C(Nc2nc3ccc(F)cc3o2)N1 (stereo not drawn)
7.71 min	17.2 µM	< 1 µg/mL	–	1038.5 10^-6 cm/s	CC1=C(C(=O)Nc2ccccc2CO)C(c2ccccc2Cl)N=C(Nc2nc3ccccc3o2)N1 (stereo not drawn)
> 30 min	1.22 µM	> 90 µg/mL	< 1 ×10⁻⁶ cm/s	–	CC1=C(C(=O)Nc2cc(C(=O)O)ccn2)C(c2ccc(-c3ccc(C)nc3)cc2Cl)N=C(Nc2nc3ccc(F)cc3o2)N1 (stereo not drawn)
30.9 min	4.32 µM	–	< 21.9 ×10⁻⁶ cm/s	–	COC(=O)c1ccnc(NC(=O)C2=C(C)NC(Nc3nc4ccc(F)cc4o3)=N[C@H]2c2ccccc2Cl)c1
24.3 min	86.3 µM	–	< 7.4 ×10⁻⁶ cm/s	–	COC(=O)c1ccnc(NC(=O)C2=C(C)NC(Nc3nc4ccc(F)cc4o3)=N[C@@H]2c2ccccc2Cl)c1
> 30 min	–	< 1 µg/mL	< 4.9 ×10⁻⁶ cm/s	–	CC1=C(C(=O)Nc2cc(C(=O)O)ccn2)C(c2ccc(-c3ccccc3)cc2Cl)N=C(Nc2nc3ccc(F)cc3o2)N1 (stereo not drawn)
> 30 min	21.7 µM	< 1 µg/mL	–	–	CC1=C(C(=O)Nc2nnc(C(F)(F)F)s2)C(c2ccccc2Cl)N=C(Nc2nc3ccccc3o2)N1 (stereo not drawn)
> 30 min	19.3 µM	54 µg/mL (≈ 97.4 µM)	–	–	CC1=C(C(=O)Nc2cc(C(=O)O)ccc2Cl)C(c2ccccc2Cl)N=C(Nc2nc3ccc(F)cc3o2)N1 (stereo not drawn)
20 min	6.85 µM	< 1 µg/mL	–	–	COC(=O)c1ccnc(NC(=O)C2=C(C)NC(Nc3nc4ccccc4o3)=N[C@H]2c2ccccc2Cl)c1
> 30 min	34.4 µM	> 76 µg/mL	–	–	CC1=C(C(=O)Nc2cc(C(=O)O)ccn2)C(c2ccccc2Cl)N=C(Nc2nc3ccccc3o2)N1C (stereo not drawn)
9.37 min	19.3 µM	< 1 µg/mL	–	–	CC1=C(S(C)(=O)=O)C(c2ccccc2Cl)N=C(Nc2nc3ccccc3o2)N1 (stereo not drawn)
> 30 min	15.3 µM	< 1 µg/mL	–	–	CC(C)C1=C(C(=O)Nc2nncs2)C(c2ccccc2Cl)N=C(Nc2nc3ccccc3o2)N1 (stereo not drawn)

Structure (SMILES)	half-life [1]	IC50 [2]	solubility kinetic [3]	Papp [4]	permeability [4]
CC1=C(C(=O)Nc2cc(C(=O)O)ccn2)C(c2ccc(C(=O)O)cc2Cl)N=C(Nc2nc3ccc(F)cc3o2)N1 (stereo not drawn)	> 30 min	15.3 µM	> 83 µg/mL	< 1 ×10⁻⁶ cm/s	–
COP(=O)(OC)C1=C(C)NC(Nc2nc3ccccc3o2)=NC1c1ccccc1Cl (stereo not drawn)	5.35 min	13.7 µM	12.2 µg/mL (≈ 27.3 µM)	–	1813.86 10^-6 cm/s
